test system: P. falciparum (NF54 or 3D7 strain); experiment: Assay for P. falciparum proliferation in infected human blood cells (SYBR Green); type: cell-based, Plasmodium falciparum; conditions: Plasmodium falciparum, Erythrocyte, 72 h, NF54 or 3D7 infected human erythrocytes, 72 hours; read-out: EC50 (nM), inhibitory efficacy in delaying P. falciparum proliferation in infected human blood cells
How it was run: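 NF54 or 3D7 parasites in O+ human erythrocytes at 2.5% hematocrit and 0.3% parasitemia final, exposed to compounds 72 h at 37 °C under 93% N2/4% CO2/3% O2.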

First: CN(C(=O)c1cn2c(-c3ccc(C(C)(F)F)cc3)cnc2cn1)c1ccc(Cl)nc1 [Compound 237, N-(6-chloropyridin-3-yl)-3-[4-(1,1-difluoroethyl)phenyl]-N-methylimidazo[1,2-a]pyrazine-6-carboxamide]
Second: COC(=O)Nc1ccc(-c2cnc3cnc(C(=O)N(C)c4ccc(Cl)nc4)cn23)cc1 [Compound 245, methyl N-(4-{6-[(6-chloropyridin-3-yl)(methyl)carbamoyl]imidazo[1,2-a]pyrazin-3-yl}phenyl)carbamate]
The EC50 of the first is 2.3-fold lower: 100 nM for the first, 226 nM for the second. The first is the more potent here.

First: COCCN(C(=O)c1cn2c(-c3ccc(C(F)(F)F)cc3)cnc2cn1)c1ccc(C#N)cc1 [Compound 238, N-(4-cyanophenyl)-N-(2-methoxyethyl)-3-[4-(trifluoromethyl)phenyl]imidazo[1,2-a]pyrazine-6-carboxamide]
Second: CN(C(=O)c1cn2c(-c3ccc(C(F)(F)F)cc3)cnc2cn1)c1ccncc1 [Compound 249, N-methyl-N-(pyridin-4-yl)-3-[4-(trifluoromethyl)phenyl]imidazo[1,2-a]pyrazine-6-carboxamide]
The EC50 of the first is 4.2-fold lower: 152 nM for the first, 635 nM for the second. The first is the more potent here.

First: CN(C(=O)c1cn2c(-c3ccc(C(F)(F)F)cc3)cnc2cn1)c1ccc(C(F)(F)F)nc1 [Compound 239, N-methyl-3-[4-(trifluoromethyl)phenyl]-N-[6-(trifluoromethyl)pyridin-3-yl]imidazo[1,2-a]pyrazine-6-carboxamide]
Second: COc1ncc(C)cc1N(C)C(=O)c1cn2c(-c3ccc(C(F)(F)F)cc3)cnc2cn1 [Compound 250, N-(2-methoxy-5-methylpyridin-3-yl)-N-methyl-3-[4-(trifluoromethyl)phenyl]imidazo[1,2-a]pyrazine-6-carboxamide]
The EC50 of the first is 23-fold higher: 6880 nM for the first, 302 nM for the second. The second is the more potent here.

`CN(C(=O)c1cn2c(-c3ccc(-c4nnco4)cc3)cnc2cn1)c1ccc(C#N)cc1` [Compound 240, N-(4-cyanophenyl)-N-methyl-3-[4-(1,3,4-oxadiazol-2-yl)phenyl]imidazo[1,2-a]pyrazine-6-carboxamide] and `CN(C(=O)c1cn2c(-c3ccc(-c4nnc(N)o4)cc3)cnc2cn1)c1ccc(C#N)cc1` [Compound 248, 3-[4-(5-amino-1,3,4-oxadiazol-2-yl)phenyl]-N-(4-cyanophenyl)-N-methylimidazo[1,2-a]pyrazine-6-carboxamide] are within 1.5-fold of each other in EC50: 112 nM for the first, 87 nM for the second.

`Cc1ccc(N(C)Cc2cn3c(-c4ccc(C(F)F)cc4)cnc3cn2)nc1` [Compound 241, N-({3-[4-(difluoromethyl)phenyl]imidazo[1,2-a]pyrazin-6-yl}methyl)-N,5-dimethylpyridin-2-amine] and `CC(=O)Nc1ccc(-c2cnc3cnc(CN(C)c4ccc(C)cn4)cn23)cn1` [Compound 242, N-[5-(6-{[methyl(5-methylpyridin-2-yl)amino]methyl}imidazo[1,2-a]pyrazin-3-yl)pyridin-2-yl]acetamide] are within 1.5-fold of each other in EC50: 262 nM for the first, 215 nM for the second.

First: CN(C(=O)c1cn2c(-c3cnc4[nH]ccc4c3)cnc2cn1)c1ccc(C#N)cc1 [Compound 243, N-(4-cyanophenyl)-N-methyl-3-{1H-pyrrolo[2,3-b]pyridin-5-yl}imidazo[1,2-a]pyrazine-6-carboxamide]
Second: CNc1ccc(-c2cnc3cnc(C(=O)N(C)c4ccc(C#N)cc4)cn23)cn1 [Compound 246, N-(4-cyanophenyl)-N-methyl-3-[6-(methylamino)pyridin-3-yl]imidazo[1,2-a]pyrazine-6-carboxamide]
The EC50 of the first is 3.2-fold lower: 98 nM for the first, 310 nM for the second. The first is the more potent here.

Compared with `CNC(=O)c1ccc(-c2cnc3cnc(C(=O)N(C)c4ccc(F)cc4)cn23)cc1` [Compound 244, N-(4-fluorophenyl)-N-methyl-3-[4-(methylcarbamoyl)phenyl]imidazo[1,2-a]pyrazine-6-carboxamide], `CN(C(=O)c1cn2c(-c3ccc(NC(=O)CN)cc3)cnc2cn1)c1ccc(C#N)cc1` [Compound 247, 3-[4-(2-aminoacetamido)phenyl]-N-(4-cyanophenyl)-N-methylimidazo[1,2-a]pyrazine-6-carboxamide] is 2.1-fold higher in EC50: 290 nM for the first, 611 nM for the second.
